The text below walks through data of patent US10196363B2, “Dihydropyrimidin-2-one compounds and medical use thereof” (JAPAN TOBACCO INC., priority 2014, dated 2019).

SMILES strings stand for the structures. Where two headings read alike, the source gives them in different places.

As a reminder, the EC50 is the concentration at which the effect is half-maximal.

One test deals with T1, human RORγ (Homo sapiens, UniProt P51449).
T1 construct: human RORγ, from Ser253 to Lys518; expressed in transfected cells; host or cells: CHO cells (Chinese hamster ovary), transient co-transfection with pG5-Luc
T1 sequence (P51449 253-518): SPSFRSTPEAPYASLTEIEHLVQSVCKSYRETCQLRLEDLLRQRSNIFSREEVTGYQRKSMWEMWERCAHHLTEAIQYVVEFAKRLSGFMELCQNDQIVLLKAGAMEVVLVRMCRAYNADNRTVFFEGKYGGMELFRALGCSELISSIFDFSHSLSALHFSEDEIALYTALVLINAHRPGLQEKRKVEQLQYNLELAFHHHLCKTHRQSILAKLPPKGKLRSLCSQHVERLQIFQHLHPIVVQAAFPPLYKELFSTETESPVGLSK
The experiment in a line: In vitro assay of inhibitory effect against RORγ transcriptional activity (GAL4-hRORγ LBD luciferase reporter gene assay in CHO cells). It counts as cell-based. Particulars: for hRORγ luciferase activity, %-of-control: vehicle-control 0.2% DMSO alone = 100%. The method, then: (§1) In Vitro Assay of Inhibitory Effect Against RORγ Transcriptional Activity
(§2) Inhibitory effect of a test article on transcriptional activity of RORγ was measured by means of the following reporter gene assay.
(§3) cDNA encoding human and mouse RORγ ligand binding domain (LBD) were obtained based on the sequences of human RORγ (Genebank registered number NM_005060.3) and mouse RORγ (Genebank registered number NM_011281.2) (LBD sequence: human RORγ, from Ser253 to Lys518; mouse RORγ, from Ile251 to Lys516).
(§4) The LBD cDNA of human or mouse RORγ was inserted into pFA-CMV vector (Strategene), which expresses GAL4-DNA binding domain fusion protein. The resulting plasmids are hereinafter referred to as GAL4-hRORγ plasmid and GAL4-mRORγ plasmid, respectively.
(§5) GAL4-hRORγ plasmid or GAL4-mRORγ plasmid was transiently co-transfected into Chinese hamster ovary cells (CHO cells) with pG5-Luc (Promega), a reporter plasmid expressing firefly luciferase depending on GAL4.
(§6) TransIT (Registered trademark) CHO transfection reagent (Mirus) was used to co-transfect GAL4-hRORγ plasmid or GAL4-mRORγ plasmid into CHO cells with pG5-Luc plasmid. One day before the assay, CHO cells were suspended in HAM F-12 Nutrient medium containing 10 v/v % fetal bovine serum and seeded at 6×10^6 cells per 175 cm^2 cell culture flask. Fifty four micro litters of TransIT (Registered trademark) CHO reagent was added into a 15 ml tube containing 1.16 mL of HAM F-12 Nutrient medium without fetal bovine serum, and mixed and incubated at room temperature for 10 min. Thirty six micro litters of plasmid solution containing the GAL4-hRORγ plasmid (400 ng), pG5-Luc plasmid (9000 ng) and pcDNA3 plasmid (8600 ng) were added into the tube and mixed gently. In case of mouse assay, a plasmid solution containing the GAL4-mRORγ plasmid (250 ng), pG5-Luc plasmid (9000 ng) and pcDNA3 plasmid (8750 ng) was added, instead. The mixture was incubated at room temperature for 10 min. Nine micro litters of CHO Mojo Reagent were then added into each tube and mixed gently. The mixture was incubated at room temperature for 10 min. The resultant transfection reagent was applied to the cell culture. After incubation at 37° C., 5% CO2 for 4 hours, the plasmid-transfected CHO cells were harvested with a trypsin treatment. The collected cells were resuspended in HAM F-12 Nutrient medium supplemented with 10 v/v % fetal bovine serum and plated into a 384-well-white plate at 8,000 cells/50 μL/well. The plate was incubated at room temperature for 1 hour and then further incubated at 37° C., 5% CO2 for 3 hours. The test articles were dissolved in dimethylsulfoxide (DMSO) to obtain a concentration of 10 mM. The resulting solution was diluted with a medium just before use and added to the cells in the plate to prepare 8 different concentrations of the test article. The final concentration of DMSO was 0.2 v/v %. After the addition of the test articles, the cells were incubated at 37° C., 5% CO2 for 2 days.
(§7) RORγ transcriptional activity was detected as the intracellular luciferase activity using SteadyLite HTS Reporter Gene Assay System (Perkin Elmer). StedyLite Reagent was diluted five-fold into a solution containing Extension reagent (10 mM Tricine, 0.2% w/v BSA, 0.02% v/v Tween-20) to obtain the luciferase substrate solution. After the measurement of the cell viability using Resazurin, the culture media in the plate were removed, and then the luciferase substrate solution was added into each well. After the incubation at room temperature for 10 minutes, luminescence of each well was measured by a microplate reader. The luciferase activity derived from the luminescence count in the vehicle-control well treated with 0.2% DMSO alone was defined as 100%, and the luciferase activity in the test article was calculated as a percentage (%-of-control) based on the value of the vehicle-control. EC50 value of test article was calculated by curve fitting with GraphPad Prism. […]

The target of another test is T2, mouse RORγ (Mus musculus, UniProt P51450).
T2 construct: mouse RORγ, from Ile251 to Lys516; expressed in transfected cells; host or cells: CHO cells (Chinese hamster ovary), transient co-transfection with pG5-Luc
T2 sequence (P51450 251-516): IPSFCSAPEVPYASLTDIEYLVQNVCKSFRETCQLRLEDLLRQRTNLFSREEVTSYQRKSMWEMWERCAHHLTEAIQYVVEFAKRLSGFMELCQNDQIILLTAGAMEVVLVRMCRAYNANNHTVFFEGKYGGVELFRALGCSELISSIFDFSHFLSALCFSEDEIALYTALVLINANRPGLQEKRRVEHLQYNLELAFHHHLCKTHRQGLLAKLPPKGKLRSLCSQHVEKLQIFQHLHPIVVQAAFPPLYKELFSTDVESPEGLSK
In words: In vitro assay of inhibitory effect against RORγ transcriptional activity (GAL4-mRORγ LBD luciferase reporter gene assay in CHO cells). It counts as cell-based. To be noted: for mRORγ luciferase activity, %-of-control: vehicle-control 0.2% DMSO alone = 100%. The method, then:
as §1, §2, §3, §4, §5, §6, §7
(A reporter such as luciferase makes a cellular process visible.)

[1] abbreviates: GAL4-hRORγ LBD / pG5-Luc in CHO cells, 2 days incubation.
Setting [2] is: GAL4-mRORγ LBD / pG5-Luc in CHO cells, 2 days incubation.
The mark [3] stands for this setting: value in parentheses beside the > EC50 bound.
Setting [4] is: value in parentheses beside the EC50 bound.

Turning to `CC(C)C1=CN(CCOCC(=O)O)C(=O)NC1(C)c1ccc(CCC(C)(C)C)c(Cl)c1` (single isomer, unassigned) [Example 39], the EC50 was 20 nM at human RORγ (setting [1]) and 26 nM at mouse RORγ (setting [2]).

With `CC(C)C1=CN(CCOCC(=O)O)C(=O)NC1(C)c1ccc(CCC(C)(C)C)c(Cl)c1` (single isomer, unassigned) [Example 40], the EC50 at human RORγ (setting [1]) was found to be 152 nM; at mouse RORγ (setting [2]), 198 nM.

On to `CC(C)C1=CN(C2CCC(C(=O)O)C2)C(=O)N[C@]1(C)c1ccc(CCC(C)(C)C)c(Cl)c1` (single isomer, unassigned) [Example 63], for which the EC50 at human RORγ (setting [1]) and at mouse RORγ (setting [2]) was over 8000 nM each time. For the same compound, the “hRORγ luciferase activity, %-of-control” value at human RORγ (setting [3]) is given as “(51%)”. For the same compound, the “mRORγ luciferase activity, %-of-control” value on mouse RORγ (setting [3]) is reported as “(70%)”.

As for `CC(C)C1=CN(C2CCC(C(=O)O)C2)C(=O)N[C@@]1(C)c1ccc(CCC(C)(C)C)c(Cl)c1` (single isomer, unassigned) [Example 64], the EC50 at human RORγ (setting [1]) was found to be 19 nM; on mouse RORγ (setting [2]), 16 nM.

For `CC(C)(C)CCc1ccc(C2NC(=O)N([C@H]3C[C@H](C(=O)O)C3)C=C2C(C)(C)C)cc1Cl` (single isomer, unassigned) [Example 101], the figures for the EC50 on human RORγ (setting [1]) and at mouse RORγ (setting [2]) were 32 nM and 21 nM, respectively.

As to `CC(C)(C)CCc1ccc(C2NC(=O)N([C@H]3C[C@H](C(=O)O)C3)C=C2C(C)(C)C)cc1Cl` (single isomer, unassigned) [Example 102], the concentration for a half-maximal effect (EC50) on human RORγ (setting [1]) and on mouse RORγ (setting [2]) was over 8000 nM throughout. Also, on human RORγ (setting [3]), the “hRORγ luciferase activity, %-of-control” value is on record as “(76%)”. In addition, the “mRORγ luciferase activity, %-of-control” value at mouse RORγ (setting [3]) is on record as “(76%)”.

For the compound `CC(C)C1=CN([C@H]2C[C@H](CC(=O)O)C2)C(=O)N[C@]1(C)c1ccc(CCC(C)(C)C)c(Cl)c1` (single isomer, unassigned) [Example 107], the EC50 at human RORγ (setting [1]) came out at 3930 nM; at mouse RORγ (setting [2]), 1980 nM.

Take `CC(C)(C)CCc1ccc(C2(C)NC(=O)NC=C2C(C)(C)CCC(=O)O)cc1Cl` (single isomer, unassigned) [Example 130, 4-{4-[3-chloro-4-(3,3-dimethyl-butyl)-phenyl]-4-methyl-2-oxo-1,2,3,4-tetrahydro-pyrimidin-5-yl}-4-methyl-pentanoic Acid]: the EC50 was 10 nM on human RORγ (setting [1]) and 19 nM on mouse RORγ (setting [2]).

On to `CC(C)C1=CN(CCC(=O)O)C(=O)NC1(C)c1ccc(C2=CC(C)(C)CCC2)c(Cl)c1` (single isomer, unassigned) [Example 151], for which the results for the EC50 on human RORγ (setting [1]) and at mouse RORγ (setting [2]) were 18 nM and 23 nM, respectively.

For the compound `COCCN1C=C(C(C)(C)CCC(=O)O)C(C)(c2ccc(CCC(C)(C)C)c(Cl)c2)NC1=O` (single isomer, unassigned) [Example 160], the EC50 turned out to be 15 nM at human RORγ (setting [1]) and 40 nM on mouse RORγ (setting [2]).

For `CC(C)C1=CN(CCC(=O)O)C(=O)NC1(C)c1ccc(C2CCCC(C)(C)C2)c(Cl)c1` (single isomer, unassigned) [Example 166], the EC50 at human RORγ (setting [1]) turned out to be 14 nM; at mouse RORγ (setting [2]), 29 nM.

As to `CC(C)C1=CN(CCC(=O)O)C(=O)NC1(C)c1ccc(C2CCCC(C)(C)C2)c(Cl)c1` (single isomer, unassigned) [Example 167], the results for the concentration for a half-maximal effect (EC50) at human RORγ (setting [1]) and at mouse RORγ (setting [2]) were 65 nM and 49 nM, respectively.

Take `COCCN1C=C([C@H]2C[C@@H](C(=O)O)C2)C(C)(c2ccc(CCC(C)(C)C)c(Cl)c2)NC1=O` (single isomer, unassigned) [Example 168]: the half-maximal effective concentration (EC50) came out at 12 nM on human RORγ (setting [1]) and 18 nM on mouse RORγ (setting [2]).

On to `CC(C)C1=CN(CCC(=O)O)C(=O)N[C@@]1(C)c1ccc(C2CC2C(C)(C)C)c(Cl)c1` (single isomer, unassigned) [Example 169], for which the EC50 worked out at 8 nM at human RORγ (setting [1]) and 15 nM at mouse RORγ (setting [2]).

In the case of `CC(C)C1=CN(CCC(=O)O)C(=O)N[C@@]1(C)c1ccc(C2CC2C(C)(C)C)c(Cl)c1` (single isomer, unassigned) [Example 170], the results for the EC50 at human RORγ (setting [1]) and at mouse RORγ (setting [2]) were 58 nM and 40 nM, respectively.

For `CC(C)(C)CCc1ccc(C2(C)NC(=O)N(CCC(=O)O)C=C2C2(C)CC2)cc1Cl` (single isomer, unassigned) [Example 171], the EC50 on human RORγ (setting [1]) came to 12 nM; at mouse RORγ (setting [2]) it was 14 nM.

Take `CC(C)N1C=C(C(C)(C)CCC(=O)O)C(C)(c2ccc(CCC(C)(C)C)c(Cl)c2)NC1=O` (single isomer, unassigned) [Example 172]: the half-maximal effective concentration (EC50) stood at 13 nM on human RORγ (setting [1]) and 18 nM on mouse RORγ (setting [2]).

On to `CC(C)C1=CN(CCC(=O)O)C(=O)N[C@@]1(C)c1ccc(C2CC2C(C)C)c(Cl)c1` (single isomer, unassigned) [Example 174], for which the EC50 is 14 nM at human RORγ (setting [1]) and 11 nM on mouse RORγ (setting [2]).

For `CC(C)(C)CCc1ccc(C2(C)NC(=O)N([C@H]3C[C@H](C(=O)O)C3)C=C2C(C)(C)CCCO)cc1Cl` (single isomer, unassigned) [Example 180], the values for the EC50 at human RORγ (setting [1]) and on mouse RORγ (setting [2]) were 32 nM and 50 nM, respectively.

Turning to `COC(=O)[C@H]1C[C@H](N2C=C(C(C)(C)CCC(=O)O)C(C)(c3ccc(CCC(C)(C)C)c(Cl)c3)NC2=O)C1` (single isomer, unassigned) [Example 181], the EC50 at human RORγ (setting [1]) was 18 nM; at mouse RORγ (setting [2]), 32 nM.

`CC(C)(C)CCc1ccc(C2(C)NC(=O)N([C@H]3C[C@H](CO)C3)C=C2C(C)(C)CCC(=O)O)cc1Cl` (single isomer, unassigned) [Example 182]: the concentration giving a half-maximal response (EC50) at human RORγ (setting [1]) stood at 27 nM; on mouse RORγ (setting [2]), 76 nM.

For `CC(C)(C)CCc1ccc(C2(C)NC(=O)N(C3CCC3)C=C2C(C)(C)CCC(=O)O)cc1Cl` (single isomer, unassigned) [Example 184], the values for the EC50 at human RORγ (setting [1]) and on mouse RORγ (setting [2]) were 11 nM and 22 nM, respectively.

For the compound `COC(=O)[C@H]1C[C@H](N2C=C(C(C)(C)CCCO)[C@@](C)(c3ccc(CCC(C)(C)C)c(Cl)c3)NC2=O)C1` (single isomer, unassigned) [Example 190], the EC50 at human RORγ (GAL4-hRORγ LBD luciferase reporter, CHO cells, read-out: LUC EC50 hRORγ) was over 8000 nM; at mouse RORγ (GAL4-mRORγ LBD luciferase reporter, CHO cells, read-out: LUC EC50 mRORγ), over 8000 nM. The “hRORγ luciferase activity, %-of-control” value on human RORγ (setting [4]) is “(74%)”. The “mRORγ luciferase activity, %-of-control” value on mouse RORγ (setting [4]) is on record as “(66%)”.
